# Assay results reported in patent publication US7737146B2, “Compound, useful for pancreatic lipase inhibition and the process for isolation thereof” (Council of Scientific and Industrial Research, priority 2005, dated 2010).
# “Also recorded” adds a separate entry of the source.
# Experiment: solubility in solvents and buffers
# Type: physicochemical
compound,measurement,setting,value
"CCCCCCCCCCCC/C=C/CCCCC(=O)Oc1nc2ccccc2nc1OP(O)(=S)OCCCCCCCCCCCCCCCC (stereo not shown) [streptolipin, Nonadeca-6-enoic acid-3-(hexadecyloxy-hydroxy-thiophosphoryloxy)-quinoxalin-2-yl ester]",Solubility response,5% acetic acid,Insoluble
same,Solubility response,5% sodium bicarbonate,Insoluble
same,Solubility response,5% sodium hydroxide,Insoluble
same,Solubility response,Acetone,Soluble
same,Solubility response,Acetonitrile,slightly soluble; also recorded: Sparingly soluble
same,Solubility response,Chloroform,Soluble
same,Solubility response,Diethyl ether,slightly soluble; also recorded: Sparingly soluble
same,Solubility response,Dimethyl sulphoxide,Soluble
same,Solubility response,Ethanol,Sparingly soluble
same,Solubility response,Ethyl acetate,slightly soluble; also recorded: Sparingly soluble
same,Solubility response,Hexane,Sparingly soluble
same,Solubility response,Methanol,slightly soluble; also recorded: Sparingly soluble
same,Solubility response,Phosphate buffer (pH 7.4-8.0),Insoluble
same,Solubility response,"acetate buffer (pH 5.0, 6.0)",Insoluble
same,Solubility response,"tris buffer (pH 8.0, 9.0)",Insoluble
same,Solubility response,water,Insoluble
